We go through five compounds from US10168342B2, “Lipid probes and uses thereof” (THE SCRIPPS RESEARCH INSTITUTE, priority 2015, dated 2019).

SMILES strings stand for the structures. Where two headings read alike, the source gives them in different places.

Experiment [1] concerns the target AEA-DA lipid probe targets in Neuro2a cells (Mus musculus, UniProt G5E895). The following applies: competitor 25 μM.
The target of experiment [2] is AEA-DA lipid probe targets in Neuro2a cells (Mus musculus, UniProt P15331).
AEA-DA lipid probe targets in Neuro2a cells (Mus musculus, UniProt P15331), sequence (P15331 whole entry): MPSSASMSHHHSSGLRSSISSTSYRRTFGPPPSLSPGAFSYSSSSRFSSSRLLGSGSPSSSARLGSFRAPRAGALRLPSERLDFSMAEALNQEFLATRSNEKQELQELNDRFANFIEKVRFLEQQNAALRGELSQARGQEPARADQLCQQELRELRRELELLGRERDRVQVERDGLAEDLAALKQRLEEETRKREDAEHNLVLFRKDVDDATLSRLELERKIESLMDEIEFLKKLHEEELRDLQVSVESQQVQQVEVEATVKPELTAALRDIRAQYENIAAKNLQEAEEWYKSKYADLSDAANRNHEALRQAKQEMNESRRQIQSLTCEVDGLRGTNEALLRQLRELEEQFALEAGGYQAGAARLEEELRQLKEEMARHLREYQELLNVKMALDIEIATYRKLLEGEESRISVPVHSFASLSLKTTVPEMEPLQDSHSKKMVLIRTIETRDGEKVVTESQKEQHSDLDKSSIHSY
In experiment [3] the target is T1, AEA-DA lipid probe targets in Neuro2a cells (Mus musculus, UniProt Q5XKN4).
T1 sequence (Q5XKN4 1-183): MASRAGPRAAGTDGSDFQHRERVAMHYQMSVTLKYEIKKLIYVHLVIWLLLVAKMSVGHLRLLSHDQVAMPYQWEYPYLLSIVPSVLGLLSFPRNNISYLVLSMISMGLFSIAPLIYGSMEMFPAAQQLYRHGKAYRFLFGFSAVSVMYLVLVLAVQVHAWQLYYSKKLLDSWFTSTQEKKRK

Experiment [4] addresses T2, AEA-DA lipid probe targets in Neuro2a cells (Mus musculus, UniProt Q61009).
T2 sequence (Q61009 1-509): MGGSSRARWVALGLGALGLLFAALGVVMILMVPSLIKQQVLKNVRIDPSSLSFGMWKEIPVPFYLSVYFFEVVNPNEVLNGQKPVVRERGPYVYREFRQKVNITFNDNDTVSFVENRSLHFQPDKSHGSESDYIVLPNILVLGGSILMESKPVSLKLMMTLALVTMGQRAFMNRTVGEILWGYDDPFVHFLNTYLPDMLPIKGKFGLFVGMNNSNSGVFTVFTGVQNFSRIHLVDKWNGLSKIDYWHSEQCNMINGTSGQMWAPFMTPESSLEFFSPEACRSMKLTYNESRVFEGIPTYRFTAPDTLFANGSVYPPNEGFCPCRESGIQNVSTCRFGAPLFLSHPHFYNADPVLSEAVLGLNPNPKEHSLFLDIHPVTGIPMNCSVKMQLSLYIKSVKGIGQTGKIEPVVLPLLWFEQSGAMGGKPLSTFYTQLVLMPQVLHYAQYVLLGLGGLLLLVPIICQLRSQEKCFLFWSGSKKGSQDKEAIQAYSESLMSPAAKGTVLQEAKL

Experiment [5] deals with T3, AEA-DA lipid probe targets in Neuro2a cells (Mus musculus, UniProt Q61263).
T3 sequence (Q61263 1-540): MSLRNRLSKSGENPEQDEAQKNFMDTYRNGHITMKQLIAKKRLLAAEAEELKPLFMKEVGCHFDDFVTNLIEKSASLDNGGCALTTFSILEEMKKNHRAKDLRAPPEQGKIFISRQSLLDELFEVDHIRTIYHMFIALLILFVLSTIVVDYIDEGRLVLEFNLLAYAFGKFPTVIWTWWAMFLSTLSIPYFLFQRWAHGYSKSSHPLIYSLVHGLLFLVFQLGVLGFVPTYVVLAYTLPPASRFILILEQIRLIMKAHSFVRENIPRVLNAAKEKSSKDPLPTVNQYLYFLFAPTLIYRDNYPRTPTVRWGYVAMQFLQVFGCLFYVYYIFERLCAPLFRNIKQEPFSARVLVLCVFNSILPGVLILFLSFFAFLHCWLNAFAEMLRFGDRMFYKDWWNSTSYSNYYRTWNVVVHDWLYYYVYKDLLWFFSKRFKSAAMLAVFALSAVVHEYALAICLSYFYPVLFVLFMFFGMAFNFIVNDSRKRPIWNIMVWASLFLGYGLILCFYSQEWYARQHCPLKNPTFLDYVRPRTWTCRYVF

The target in experiment [6] is T4, AEA-DA lipid probe targets in Neuro2a cells (Mus musculus, UniProt Q6GV12).
T4 sequence (Q6GV12 26-332): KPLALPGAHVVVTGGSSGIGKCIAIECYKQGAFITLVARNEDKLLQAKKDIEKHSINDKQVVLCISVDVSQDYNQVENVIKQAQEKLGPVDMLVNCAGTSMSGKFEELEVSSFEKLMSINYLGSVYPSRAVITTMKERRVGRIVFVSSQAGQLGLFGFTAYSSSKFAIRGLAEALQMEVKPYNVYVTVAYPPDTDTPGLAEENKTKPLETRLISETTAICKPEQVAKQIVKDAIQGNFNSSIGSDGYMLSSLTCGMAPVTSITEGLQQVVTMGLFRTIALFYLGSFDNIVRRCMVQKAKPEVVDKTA

The target of experiment [7] is AEA-DA lipid probe targets in Neuro2a cells (Mus musculus, UniProt Q91XC9).
AEA-DA lipid probe targets in Neuro2a cells (Mus musculus, UniProt Q91XC9), sequence (Q91XC9 whole entry): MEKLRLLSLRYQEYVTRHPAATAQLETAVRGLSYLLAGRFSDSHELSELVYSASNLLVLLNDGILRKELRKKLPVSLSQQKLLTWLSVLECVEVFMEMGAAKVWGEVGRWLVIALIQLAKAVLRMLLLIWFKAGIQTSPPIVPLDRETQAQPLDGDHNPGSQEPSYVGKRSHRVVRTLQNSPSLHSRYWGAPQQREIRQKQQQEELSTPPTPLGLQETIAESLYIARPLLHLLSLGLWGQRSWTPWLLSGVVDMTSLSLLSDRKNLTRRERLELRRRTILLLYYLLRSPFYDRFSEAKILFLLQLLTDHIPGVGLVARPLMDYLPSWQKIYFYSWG
Experiment [8] deals with T5, AEA-DA lipid probe targets in Neuro2a cells (Mus musculus, UniProt Q924Z4).
T5 sequence (Q924Z4 1-380): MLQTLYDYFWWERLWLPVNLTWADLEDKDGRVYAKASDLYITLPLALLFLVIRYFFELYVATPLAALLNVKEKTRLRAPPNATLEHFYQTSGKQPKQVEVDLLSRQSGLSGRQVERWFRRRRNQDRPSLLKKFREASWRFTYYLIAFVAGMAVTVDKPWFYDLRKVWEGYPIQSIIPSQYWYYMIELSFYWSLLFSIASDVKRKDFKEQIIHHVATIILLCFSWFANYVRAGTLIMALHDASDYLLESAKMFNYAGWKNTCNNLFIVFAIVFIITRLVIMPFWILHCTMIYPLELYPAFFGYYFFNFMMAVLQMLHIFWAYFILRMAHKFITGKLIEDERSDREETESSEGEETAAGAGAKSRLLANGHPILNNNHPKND
As to conditions: for SILAC ratio, CERS2 (Q924Z4): Neuro2a cells, AEA-DA probe.

Experiment [9] has as its target AEA-DA lipid probe targets in Neuro2a cells (Mus musculus, UniProt Q9DCH4).

AEA-DA lipid probe targets in Neuro2a cells (Mus musculus, UniProt Q9DCH4), sequence (Q9DCH4 whole entry): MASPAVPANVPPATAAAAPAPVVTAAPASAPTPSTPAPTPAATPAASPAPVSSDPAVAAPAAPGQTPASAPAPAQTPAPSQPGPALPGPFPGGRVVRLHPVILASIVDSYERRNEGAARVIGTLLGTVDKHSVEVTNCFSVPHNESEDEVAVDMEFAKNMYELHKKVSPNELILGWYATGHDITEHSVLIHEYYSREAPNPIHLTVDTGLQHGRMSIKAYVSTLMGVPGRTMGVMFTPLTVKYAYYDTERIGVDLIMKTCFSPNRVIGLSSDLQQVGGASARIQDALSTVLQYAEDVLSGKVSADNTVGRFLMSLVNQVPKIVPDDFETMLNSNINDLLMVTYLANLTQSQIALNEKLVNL
AEA-DA lipid probe targets in Neuro2a cells (Mus musculus, UniProt G5E895), sequence (G5E895 1-316): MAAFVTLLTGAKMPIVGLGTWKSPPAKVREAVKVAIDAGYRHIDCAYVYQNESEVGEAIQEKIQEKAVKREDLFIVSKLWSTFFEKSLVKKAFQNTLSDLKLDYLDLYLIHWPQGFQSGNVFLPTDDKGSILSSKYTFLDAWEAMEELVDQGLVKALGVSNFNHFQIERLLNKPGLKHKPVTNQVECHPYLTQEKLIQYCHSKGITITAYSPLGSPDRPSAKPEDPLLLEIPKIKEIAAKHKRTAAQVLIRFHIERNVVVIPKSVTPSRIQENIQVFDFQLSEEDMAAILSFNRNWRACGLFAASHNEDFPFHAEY

In the case of `C=CCN(C)CCCCCCOc1ccc(C(=O)c2ccc(Br)cc2)c(F)c1` [Ro 48-8071, reference compound], the “SILAC ratio, Akr1b10” value in [1] amounted to 1.5. For the same compound, in experiment [2] (competitor 25 μM), the “SILAC ratio Prph” value stood at 0.8. Besides, the “SILAC ratio, Jagn1” value in [3] (competitor 25 μM) was determined as 1.0. For the same compound, the “SILAC ratio, Scarb1” value in [4] (competitor 25 μM) is listed as 2.9. In experiment [5] (competitor 25 μM), the “SILAC ratio, Soat1” value came to 1.8. Further, the “SILAC ratio, Kdsr” value in experiment [6] (competitor 25 μM) turned out to be 1.6. For the same compound, in experiment [7] (competitor 25 μM), the “SILAC ratio, Pex16” value is recorded as 1.3. In experiment [8] (competitor 25 μM), the “SILAC ratio, CERS2 (Q924Z4)” value is reported as 1.6 and the “SILAC ratio, Cers2” value amounted to 1.6. Moreover, the “SILAC ratio Eif3f” value in experiment [9] (competitor 25 μM) is recorded as 0.9.

As for `CN1CCN(C(=O)c2[nH]c3ccc([N+](=O)[O-])cc3c2-c2ccccc2)CC1` [MJN228, (4-Methylpiperazin-1-yl)(5-nitro-3-phenyl-1H-indol-2-yl)methanone], in experiment [1], the “SILAC ratio, Akr1b10” value was determined as 2.8. Besides, the “SILAC ratio Prph” value in experiment [2] (competitor 10 μM) turned out to be 1.0; in experiment [2] (competitor 25 μM), 1.2; in experiment [2] (competitor 50 μM), 0.7; in experiment [2] (competitor 100 μM), 0.9. Moreover, the “SILAC ratio, Jagn1” value is reported as 1.2 in experiment [3] (competitor 10 μM), 1.4 in experiment [3] (competitor 25 μM), 1.6 in experiment [3] (competitor 50 μM) and 2.1 in [3] (competitor 100 μM). The “SILAC ratio, Scarb1” value in experiment [4] (competitor 10 μM) was 1.6; in experiment [4] (competitor 25 μM) it was 2.0; in experiment [4] (competitor 50 μM), 3.2; in experiment [4] (competitor 100 μM), 4.9. The “SILAC ratio, Soat1” value stood at 1.2 in experiment [5] (competitor 10 μM) and 2.6 in experiment [5] (competitor 25 μM). Moreover, the “SILAC ratio, Kdsr” value in experiment [6] (competitor 10 μM) was determined as 1.1; in [6] (competitor 25 μM), 1.5; in experiment [6] (competitor 50 μM) it was 1.3; in experiment [6] (competitor 100 μM) it was 1.7. The “SILAC ratio, Pex16” value in experiment [7] (competitor 10 μM) came to 0.9; in [7] (competitor 25 μM), 1.5; in experiment [7] (competitor 50 μM) it was 2.3; in experiment [7] (competitor 100 μM), 2.2. Besides, the “SILAC ratio, CERS2 (Q924Z4)” value in [8] (competitor 25 μM) is reported as 3.1. For the same compound, the “SILAC ratio, Cers2” value in experiment [8] (competitor 10 μM) is given as 2.0; in [8] (competitor 25 μM), 3.1; in experiment [8] (competitor 50 μM), 5.2; in [8] (competitor 100 μM) it was 6.8. Further, the entries for the “SILAC ratio Eif3f” value in experiment [9] (competitor 10 μM), in experiment [9] (competitor 25 μM) and in [9] (competitor 100 μM) were 1.0, 1.0 and 0.9, respectively.

As to `CCCCC/C=C\C/C=C\C/C=C\C/C=C\CCCC(=O)NCCO` [AEA, anandamide, reference compound], in [2] (competitor 200 μM), the “SILAC ratio Prph” value is reported as 1.0. Moreover, the “SILAC ratio, Jagn1” value in experiment [3] (competitor 200 μM) is 2.1. Besides, the “SILAC ratio, Scarb1” value in [4] (competitor 200 μM) turned out to be 1.6. The “SILAC ratio, Kdsr” value in [6] (competitor 200 μM) came out at 3.6. Further, in [7] (competitor 200 μM), the “SILAC ratio, Pex16” value came to 1.7. Further, in experiment [8] (competitor 200 μM), the “SILAC ratio, CERS2 (Q924Z4)” value was found to be 2.4 and the “SILAC ratio, Cers2” value stood at 2.4. Moreover, in experiment [9] (competitor 200 μM), the “SILAC ratio Eif3f” value came out at 1.4.

As for `CN1CCN(C(=O)c2c(-c3ccccc3)c3cc([N+](=O)[O-])ccc3n2C)CC1` [KML110, (1-Methyl-5-nitro-3-phenyl-1H-indol-2-yl)(4-methylpiperazin-1-yl)methanone], in experiment [1], the “SILAC ratio, Akr1b10” value is 3.9. For the same compound, in [2] (competitor 25 μM), the “SILAC ratio Prph” value is listed as 1.1. Moreover, in experiment [3] (competitor 25 μM), the “SILAC ratio, Jagn1” value is reported as 1.5. In experiment [4] (competitor 25 μM), the “SILAC ratio, Scarb1” value was determined as 2.8. For the same compound, in experiment [6] (competitor 25 μM), the “SILAC ratio, Kdsr” value is 1.6. For the same compound, the “SILAC ratio, Pex16” value in experiment [7] (competitor 25 μM) stood at 1.4. In addition, the “SILAC ratio, Cers2” value in experiment [8] (competitor 25 μM) stood at 2.2. In addition, in experiment [9] (competitor 25 μM), the “SILAC ratio Eif3f” value is 1.3.

`O=C(/C=C/c1cccnc1)NCCCCC1CCN(C(=O)c2ccccc2)CC1` [FK-866, reference compound]: in experiment [1], the “SILAC ratio, Akr1b10” value was 1.9. Besides, the “SILAC ratio Prph” value in experiment [2] (competitor 25 μM) turned out to be 1.2. In addition, the “SILAC ratio, Jagn1” value in experiment [3] (competitor 25 μM) was 1.1. The “SILAC ratio, Scarb1” value in experiment [4] (competitor 25 μM) is 2.3. Also, the “SILAC ratio, Soat1” value in [5] (competitor 25 μM) stood at 2.3. For the same compound, the “SILAC ratio, Kdsr” value in experiment [6] (competitor 25 μM) worked out at 1.1. The “SILAC ratio, Pex16” value in experiment [7] (competitor 25 μM) amounted to 1.1. In experiment [8] (competitor 25 μM), the “SILAC ratio, CERS2 (Q924Z4)” value is 1.2 and the “SILAC ratio, Cers2” value stood at 1.2. Further, the “SILAC ratio Eif3f” value in [9] (competitor 25 μM) stood at 1.3.
